Source: US20200207782A1, “CHEMICALLY ACTIVATED WATER-SOLUBLE PRODRUG” (SUMITOMO DAINIPPON PHARMA CO., LTD, priority 2017, published 2020)
Several values for one entry are separate records, joined by “and”; a condition that tells them apart may be missing. Identical values can stand only once. Counter-ions that a name gives are not always drawn.

How the values were obtained:
[1] = Solution stability test (residual ratio and generation of active form in buffers of pH 2.0 to 9.0); assay type: physicochemical; set-up: Rate of generation of active form after 24 hours in buffer with pH of 7.4: tested at 25 µM; conditions: for Degradation behaviour in buffers (in words): pH 2.0 to 9.0; for Residual ratio / Rate of generation of active form after 24 hours in buffer with pH of 7.4: 25° C.; for Residual ratio: 25 umol/L; for Rate of generation of active form after 24 hours in buffer with pH of 7.4: pH 7.4 buffer
Description: The test compounds were incubated at 25° C. at a concentration of 25 umol/L in a buffer prepared to have a pH of 2.0, 3.0, 5.0, 7.4, and 9.0. The compounds were measured by HPLC after 0, 3, 6, 9, 12, and 24 hours.
The buffers used at each pH are the following. • pH 2.0: 50 mmol/L glycine buffer • pH 3.0: 50 mmol/L citrate buffer • pH 5.0: 50 mmol/L citrate buffer • pH 7.4: 50 mmol/L phosphate buffer • pH 9.0: 50 mmol/L glycine buffer
The measurement conditions for HPLC are the following.
The yield of the Example and Reference Example compounds and active forms is calculated with each of the peak area of the Example and Reference Example compounds at 0 minutes and the peak area upon dissolution of the corresponding active form at 100 umol/L as 100%. The yield is denoted in terms of %

physchem = conditions: thermodynamic from solid; for solubility at 24 h: pH 2, aqueous buffer
Description: The solubility of the water-soluble prodrugs described in the Examples and the Reference Examples was measured. […] The filtrate was measured by HPLC.

| SMILES | Degradation behaviour in buffers (in words) [1] | Residual ratio ([1]; pH3.0 buffer, 0 hr) | Residual ratio ([1]; pH3.0 buffer, 3 hr) | Residual ratio ([1]; pH3.0 buffer, 6 hr) | Residual ratio ([1]; pH3.0 buffer, 9 hr) | Residual ratio ([1]; pH3.0 buffer, 12 hr) | Residual ratio ([1]; pH3.0 buffer, 24 hr) | Residual ratio ([1]; pH5.0 buffer, 0 hr) | Residual ratio ([1]; pH5.0 buffer, 3 hr) | Residual ratio ([1]; pH5.0 buffer, 6 hr) | Residual ratio ([1]; pH5.0 buffer, 9 hr) | Residual ratio ([1]; pH5.0 buffer, 12 hr) | Residual ratio ([1]; pH7.4 buffer, 0 hr) | Residual ratio ([1]; pH7.4 buffer, 3 hr) | Residual ratio ([1]; pH7.4 buffer, 6 hr) | Residual ratio ([1]; pH7.4 buffer, 9 hr) | Residual ratio ([1]; pH9.0 buffer, 0 hr) | Residual ratio ([1]; pH9.0 buffer, 9 hr) | Residual ratio ([1]; pH9.0 buffer, 12 hr) | Residual ratio ([1]; pH9.0 buffer, 24 hr) | other results |
| --- | --- | --- | --- | --- | --- | --- | --- | --- | --- | --- | --- | --- | --- | --- | --- | --- | --- | --- | --- | --- | --- |
| C[C@H]1COc2c1c(OC(=O)NCCCNCC(=O)O)c(OC(=O)NCCCNCC(=O)O)c1c3c(ccc21)C(C)(C)CCC3 [Example 13, 2,2′-{[(1R)-1,6,6-trimethyl-1,2,6,7,8,9-hexahydrophenanthro[1,2-b]furan-10,11-diyl]bis(oxycarbonylazanediylpropane-3,1-diylazanediyl)}diacetic acid dihydrochloride] | pH dependent and chemical degradation progressed | 100% | 100% | 100% | 99.8% | 99.6% | 100% | 100% | 99.4% | 99.2% | 99.0% | 98.6% | 100% | 61.8% | 42.6% | 28.5% | 100% | 99.3% | 99.1% | 100% | Residual ratio ([1]; pH5.0 buffer, 24 hr): 98.4%; Residual ratio ([1]; pH7.4 buffer, 12 hr): 19.1%; Residual ratio ([1]; pH7.4 buffer, 24 hr, dihydrochloride): 6% and 6.1%; Rate of generation of active form after 24 hours in buffer with pH of 7.4 [1]: 5%; Residual ratio ([1]; pH9.0 buffer, 3 hr): 99.7%; Residual ratio ([1]; pH9.0 buffer, 6 hr): 99.4%; Stability in solution (in words) ([1]; pH of 2.0, 25° C.): stable; Stability in solution (in words) ([1]; pH of 3.0, 25° C.): stable; Stability in solution (in words) ([1]; pH of 5.0, 25° C.): stable; solubility at 24 h (physchem): > 10000 µg/mL |
| NCCCNC(=O)Oc1c(OC(=O)NCCCN)c(-c2ccccc2)c2c(c1-c1ccccc1)OCO2 [Example 6, 4,7-Diphenyl-1,3-benzodioxole-5,6-diyl bis[(3-aminopropyl)carbamate]dihydrochloride] | pH dependent and chemical degradation progressed | 100% | 100% | 100% | 100% | 100% | 100% | 100% | 100% | 99.8% | 99.6% | 99.5% | 96.8% | 65.8% | 45.2% | 31.4% | 10.4% | 0.7% | 0.9% | 0.9% | Residual ratio ([1]; pH2.0 buffer, 0 hr): 100%; Residual ratio ([1]; pH2.0 buffer, 3 hr): 100%; Residual ratio ([1]; pH2.0 buffer, 6 hr): 100%; Residual ratio ([1]; pH2.0 buffer, 9 hr): 100%; Residual ratio ([1]; pH2.0 buffer, 12 hr): 100%; Residual ratio ([1]; pH2.0 buffer, 24 hr): 100%; Residual ratio ([1]; pH5.0 buffer, 24 hr): 99.5%; Residual ratio ([1]; pH7.4 buffer, 12 hr): 22.2%; Residual ratio ([1]; pH7.4 buffer, 24 hr): 17% and 16.5%; Residual ratio ([1]; pH9.0 buffer, 3 hr): 0.4%; Residual ratio ([1]; pH9.0 buffer, 6 hr): 0.7%; Stability in solution (in words) ([1]; pH of 2.0, 25° C.): very stable; Stability in solution (in words) ([1]; pH of 3.0, 25° C.): very stable; Stability in solution (in words) ([1]; pH of 5.0, 25° C.): very stable; solubility at 24 h (physchem): > 10000 µg/mL |
| CC(=O)c1cc2c(O)c3c(O)cccc3c(OC(=O)NCCCN)c2o1 [Reference Example 9, 2-Acetyl-4,5-dihydroxynaphtho[2,3-b]furan-9-yl(3-aminopropyl)carbamate hydrochloride] | pH dependent and chemical degradation progressed | 101% | 100% | 100% | 99.8% | 99.5% | 98.4% | 102% | 104% | 99.7% | 93.8% | 87.4% | 103% | 83.0% | 67.1% | 52.7% | 75.3% | 0.0% | 0.0% | 0.0% | Residual ratio ([1]; pH2.0 buffer, 0 hr): 100%; Residual ratio ([1]; pH2.0 buffer, 3 hr): 96.9%; Residual ratio ([1]; pH2.0 buffer, 6 hr): 92.9%; Residual ratio ([1]; pH2.0 buffer, 9 hr): 85.7%; Residual ratio ([1]; pH2.0 buffer, 12 hr): 85.2%; Residual ratio ([1]; pH5.0 buffer, 24 hr, hydrochloride): 67% and 67.1%; Residual ratio ([1]; pH7.4 buffer, 12 hr): 41.1%; Residual ratio ([1]; pH7.4 buffer, 24 hr, hydrochloride): 26% and 25.5%; Rate of generation of active form after 24 hours in buffer with pH of 7.4 [1]: 71%; Residual ratio ([1]; pH9.0 buffer, 3 hr): 13.7%; Residual ratio ([1]; pH9.0 buffer, 6 hr, hydrochloride): 0%; Stability in solution (in words) ([1]; pH of 2.0, 25° C.): sufficient stability; Stability in solution (in words) ([1]; pH of 3.0, 25° C.): sufficient stability; solubility (physchem; pH 3, aqueous buffer): > 10000 µg/mL |
| Cc1cc(OC(=O)NCCNCC(=O)O)c2ccccc2c1OC(=O)NCCNCC(=O)O [Example 2, 2,2′-[(2-Methylnaphthalene-1,4-diyl)bis(oxycarbonyliminoethane-2,1-diylimino)]diacetic acid dihydrochloride] | pH dependent and chemical degradation progressed | 101% | 101% | 101% | 100% | 100% | 101% | 101% | 101% | 102% | 102% | 100% | 102% | 50.7% | 32.0% | 16.2% | 44.5% | 0.0% | 0.0% | 0.0% | Residual ratio ([1]; pH2.0 buffer, 0 hr): 100%; Residual ratio ([1]; pH2.0 buffer, 3 hr): 100%; Residual ratio ([1]; pH2.0 buffer, 6 hr): 99.8%; Residual ratio ([1]; pH2.0 buffer, 9 hr): 99.7%; Residual ratio ([1]; pH2.0 buffer, 12 hr): 102%; Residual ratio ([1]; pH2.0 buffer, 24 hr): 100%; Residual ratio ([1]; pH5.0 buffer, 24 hr): 102%; Residual ratio ([1]; pH7.4 buffer, 12 hr, dihydrochloride): 0%; Residual ratio ([1]; pH7.4 buffer, 24 hr): 0.0%; Rate of generation of active form after 24 hours in buffer with pH of 7.4 [1]: 7%; Residual ratio ([1]; pH9.0 buffer, 3 hr, dihydrochloride): 0%; Residual ratio ([1]; pH9.0 buffer, 6 hr): 0.0%; Stability in solution (in words) ([1]; pH of 2.0, 25° C.): very stable; Stability in solution (in words) ([1]; pH of 3.0, 25° C.): very stable; Stability in solution (in words) ([1]; pH of 5.0, 25° C.): very stable; solubility at 24 h (physchem): > 10000 µg/mL |
